Laboratory results taken from ChEMBL document CHEMBL1140175, “Synthesis and evaluation of novel boron-containing complexes of potential use for the selective treatment of malignant melanoma” (J Med Chem, 2008).
Active and inactive are the calls of the source. The calls are words filed in the database; no cut-off is given here.

How the values were obtained:
[1] = target: T1, Tyrosinase (Agaricus bisporus) (UniProt O42713); test: Binding affinity to mushroom tyrosinase assessed as […]
T1 sequence (whole entry): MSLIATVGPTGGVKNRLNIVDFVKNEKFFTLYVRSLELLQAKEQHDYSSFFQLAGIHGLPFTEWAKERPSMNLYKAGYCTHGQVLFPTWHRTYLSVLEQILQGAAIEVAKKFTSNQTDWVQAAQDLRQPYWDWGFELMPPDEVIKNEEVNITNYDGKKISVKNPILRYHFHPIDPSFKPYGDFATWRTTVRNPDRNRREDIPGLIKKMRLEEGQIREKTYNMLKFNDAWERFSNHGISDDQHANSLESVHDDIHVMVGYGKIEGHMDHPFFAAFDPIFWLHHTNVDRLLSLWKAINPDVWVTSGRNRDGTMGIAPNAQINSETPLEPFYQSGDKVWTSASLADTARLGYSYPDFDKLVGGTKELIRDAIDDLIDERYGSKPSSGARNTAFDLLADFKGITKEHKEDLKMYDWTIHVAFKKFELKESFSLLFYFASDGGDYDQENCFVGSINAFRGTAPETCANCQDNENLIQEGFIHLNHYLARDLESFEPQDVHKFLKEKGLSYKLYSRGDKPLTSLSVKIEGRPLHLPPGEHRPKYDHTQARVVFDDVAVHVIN

[2] = Cellular uptake in human SK-MEL-23 cells assessed as boron content at 50 uM relative to control; type: ADME, cell-based
MCF7 = test: Cytotoxicity against human MCF7 cells assessed as LDH release up to 100 uM after 6 hrs by colorimetric assay; type: functional
[3] = Cellular uptake in human SK-MEL-23 cells assessed as boron content at 50 uM after 2 hrs relative to control; type: ADME, cell-based
[4] = Cytotoxicity against human SK-MEL-23 cells assessed as LDH release up to 100 uM after 6 hrs by colorimetric assay; type: functional
[5] = Cellular uptake in human SK-MEL-23 cells assessed as boron content at 50 uM after 6 hrs relative to control; type: ADME, cell-based

Row | Structure (SMILES) | Activity [1] | Activity [2] | Activity (MCF7) | Activity [3] | Activity [4] | Activity [5]
1 | O=C1O[B-]2([NH2+][C@H]1Cc1c[nH]c3ccc(O)cc13)C1CCCC2CCC1 (some centres undefined) | inactive | – | – | – | – | –
2 | O=C1O[B-]2([NH2+][C@H]1Cc1ccc(O)c(O)c1)C1CCCC2CCC1 (some centres undefined) | Active | – | – | – | – | –
3 | O=C1O[B-]2([NH2+][C@H]1Cc1ccccc1)C1CCCC2CCC1 (some centres undefined) | inactive | – | – | – | – | –
4 | O=C1O[B-]2([NH2+][C@H]1Cc1ccc(O)cc1)C1CCCC2CCC1 (some centres undefined) | Active | Not Active | <5% | 50% | <5% | > 50%
